{"source": "paper PMC9841576", "about": "“Characterisation of C101248: A novel selective THIK-1 channel inhibitor for the modulation of microglial NLRP3-inflammasome” (Neuropharmacology, 2023)", "key": {"[1]": {"system": "Calcium Channel L-Type, Benzothiazepine", "assay": "Promiscuity screening panel, radiometric binding", "conditions": "Rat", "procedure": "(§1) C101248 was further profiled in a promiscuity screening panel, using radiometric binding assays, against a selection of 18 diverse targets at 10 μM (Supplementary Table 2).\n(§2) Supplementary Table 2: Promiscuity screening panel data for C101248. Compound was screened at 10 µM, in duplicate, using radiometric binding assays"}, "Androgen (Testosterone)": {"target": "Androgen (Testosterone) (Homo sapiens, UniProt P10275)", "sequence (P10275 whole entry)": "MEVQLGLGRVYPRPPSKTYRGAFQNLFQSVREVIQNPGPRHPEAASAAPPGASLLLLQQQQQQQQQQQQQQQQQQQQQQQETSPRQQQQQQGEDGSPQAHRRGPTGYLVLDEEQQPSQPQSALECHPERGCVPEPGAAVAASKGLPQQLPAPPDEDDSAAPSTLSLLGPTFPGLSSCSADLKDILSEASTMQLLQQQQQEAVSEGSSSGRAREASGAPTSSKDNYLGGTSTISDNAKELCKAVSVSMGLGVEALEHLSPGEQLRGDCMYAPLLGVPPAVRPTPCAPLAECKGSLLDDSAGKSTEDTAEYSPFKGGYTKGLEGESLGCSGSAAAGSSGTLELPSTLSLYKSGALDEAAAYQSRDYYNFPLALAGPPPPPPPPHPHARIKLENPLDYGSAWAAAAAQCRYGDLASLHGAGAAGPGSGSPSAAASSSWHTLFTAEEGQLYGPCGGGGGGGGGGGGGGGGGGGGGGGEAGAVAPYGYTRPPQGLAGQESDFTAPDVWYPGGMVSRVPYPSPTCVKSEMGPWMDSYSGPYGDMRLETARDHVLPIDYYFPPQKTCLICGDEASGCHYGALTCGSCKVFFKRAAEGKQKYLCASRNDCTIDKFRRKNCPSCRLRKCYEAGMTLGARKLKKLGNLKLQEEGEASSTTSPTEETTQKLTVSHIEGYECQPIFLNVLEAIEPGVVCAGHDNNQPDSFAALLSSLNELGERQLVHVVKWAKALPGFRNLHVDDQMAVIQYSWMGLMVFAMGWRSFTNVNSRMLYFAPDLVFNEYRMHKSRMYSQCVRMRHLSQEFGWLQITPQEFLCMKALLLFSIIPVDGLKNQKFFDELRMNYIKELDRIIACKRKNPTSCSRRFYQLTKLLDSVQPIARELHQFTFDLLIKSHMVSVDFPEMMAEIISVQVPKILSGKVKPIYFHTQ", "assay": "Promiscuity screening panel, radiometric binding", "conditions": "read-out: % inhibition at 10 µM (n=2)", "procedure": "as §1, §2"}, "[2]": {"target": "Serotonin (5-Hydroxytryptamine) 5-HT2B (Homo sapiens, UniProt P41595)", "sequence (P41595 whole entry)": "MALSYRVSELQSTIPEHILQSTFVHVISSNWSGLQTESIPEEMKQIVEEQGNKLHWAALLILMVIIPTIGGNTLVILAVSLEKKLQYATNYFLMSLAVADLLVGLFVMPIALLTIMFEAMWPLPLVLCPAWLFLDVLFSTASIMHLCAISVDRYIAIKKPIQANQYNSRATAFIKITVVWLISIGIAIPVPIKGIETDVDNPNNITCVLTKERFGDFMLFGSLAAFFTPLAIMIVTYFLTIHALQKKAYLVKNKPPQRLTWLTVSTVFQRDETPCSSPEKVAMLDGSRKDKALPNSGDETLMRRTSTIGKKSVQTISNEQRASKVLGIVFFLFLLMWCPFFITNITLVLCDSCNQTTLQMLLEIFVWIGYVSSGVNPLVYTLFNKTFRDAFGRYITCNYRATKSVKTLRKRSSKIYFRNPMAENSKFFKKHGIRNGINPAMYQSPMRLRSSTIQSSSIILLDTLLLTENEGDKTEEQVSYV", "assay": "Promiscuity screening panel, radiometric binding", "conditions": "read-out: % inhibition at 10 µM (n=2)", "procedure": "as §1, §2"}, "[3]": {"system": "Adrenergic α1, Non-Selective", "assay": "Promiscuity screening panel, radiometric binding", "conditions": "Rat", "procedure": "as §1, §2"}, "TREK-1": {"target": "T1, TREK-1 (Homo sapiens, UniProt O95069)", "T1 construct": "expressed in transfected cells", "T1 sequence (O95069 whole entry)": "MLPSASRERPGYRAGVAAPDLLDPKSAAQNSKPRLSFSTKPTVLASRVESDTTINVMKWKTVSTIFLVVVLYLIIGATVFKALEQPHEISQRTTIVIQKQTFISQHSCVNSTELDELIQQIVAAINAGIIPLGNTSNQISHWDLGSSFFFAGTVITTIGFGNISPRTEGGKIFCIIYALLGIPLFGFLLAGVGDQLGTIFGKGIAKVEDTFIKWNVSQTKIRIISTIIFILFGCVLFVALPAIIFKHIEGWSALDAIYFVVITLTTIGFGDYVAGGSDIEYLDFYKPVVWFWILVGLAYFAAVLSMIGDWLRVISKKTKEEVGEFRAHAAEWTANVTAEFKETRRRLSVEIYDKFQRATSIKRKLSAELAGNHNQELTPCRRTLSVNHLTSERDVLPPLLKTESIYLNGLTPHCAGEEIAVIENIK", "assay": "FLIPR thallium influx assay, HEK-hTREK-1 cells", "assay_type": "cell-based", "conditions": "HEK-hTREK-1, at 30 μM, compared to TPA controls; read-out: inhibition of constitutive activity", "procedure": "HEK-293 cells were transfected with human THIK-1, TREK-1, TWIK-2, or mouse THIK-1 cDNA cloned into pcDNA3.1, using either Fugene HD transfection reagent (Promega) or electroporation (MaxCyte STX instrument). Cells stably expressing the relevant genes were selected based on resistance to 500 μg/ml geneticin (Gibco). For human THIK-1 and TWIK-2 expressing cells, monoclonal lines were isolated by limited dilution cloning; mouse THIK-1 and human TREK-1 expressing cells were maintained as polyclonal pools. The HEK-293 pools and monoclones stably expressing the relevant genes were maintained in DMEM (Life Technologies), supplemented with 10% FCIII (HyClone, Fetal clone III) and 500 μg/ml geneticin. A CHO-Kv2.1 cell line was purchased from Millipore (accession NM_004975) and maintained in F12 (Life Technologies), supplemented with 10% FCSIII (Thermo Scientific) and 500 μg/ml geneticin (Life Technologies). […]\nA fluorescence-based thallium influx assay (Molecular Devices potassium assay kit) was used to monitor channel activity. […] Using a fluorescent imaging plate reader (FLIPR) tetra plate reader, 15 μl thallium stimulus solution was added to the cell plate and the fluorescence signal recorded every second for 1 min (excitation: 470–495 nm, emission: 515–575 nm)."}, "[4]": {"system": "NLRP3-dependent release of IL-1β", "assay": "LPS/ATP-induced IL-1β release from differentiated THP1 cells overexpressing human THIK-1", "assay_type": "cell-based", "conditions": "Homo sapiens, THP-1; THIK-1 overexpressing differentiated THP1 cells, LPS/ATP; read-out: IC50, inhibition of IL-1β release", "procedure": "THP1 cells, obtained from ATCC, are monocytes isolated from peripheral blood of a leukaemia patient. THP1 cells were grown in RPMI 1640 supplemented with 10% fetal bovine serum (FBS, Hyclone), 1% PenStrep (Invitrogen), and 1% GlutaMax (Invitrogen), and 0.05 mM of 2-mercaptoethanol. To overexpress human THIK-1, THP1 cells were differentiated with 100 ng/ml PMA for 24 h prior to transfection with THIK-1 mRNA synthesized as described in the supplementary material. Cell suspensions (2.5 × 10^6 cells in […]) in the presence of 200 μg/ml mRNA were electroporated with the MaxCyte (STX instrument) in an OC-25 MaxCyte Electroporation cassette using manufacturer settings for THP1 cells. Cell suspensions were transferred to a 6-well plate and allowed to recover for 20 min at 37 °C. Cells were seeded into 384-well plates (10,000 cells/well) for thallium flux assays or 96-well plates (50,000 cells/well) for inflammasome assays the following day. Overexpressing and mock-transfected cells were primed with 100 ng/ml of LPS for 3.5 h prior to addition of compounds 30 min before stimulation with 5 mM ATP. Supernatants were collected 2 h after addition of ATP and stored at −20 °C until the detection of IL-1β.\nIL-1β from culture supernatants was measured with DuoSet ELISA kit (R&D Systems) following the manufacturer instructions."}}, "data": [{"smiles": "Nc1nonc1-c1nc2ccccc2n1Cc1ccncc1", "note": "[C101248]", "values": [{"measurement": "% inhibition at 10 µM (n=2)", "setting": "[1]", "value": 3, "unit": "%"}, {"measurement": "inhibition at 10 µM", "setting": "Androgen (Testosterone)", "value": 6, "unit": "%"}, {"measurement": "inhibition at 10 µM", "setting": "[2]", "value": 24, "unit": "%"}, {"measurement": "% inhibition at 10 µM (n=2)", "setting": "[3]", "value": 12, "unit": "%"}, {"measurement": "inhibition at 30 µM", "setting": "TREK-1", "value": 18, "unit": "%"}, {"measurement": "IC50", "setting": "[4]", "value": 135, "unit": "nM"}]}]}
